Test [1] has as its system Bifidobacterium adolescentis 15704. In words: Oligosaccharide utilization (growth) by colonic bacteria. Format: cell-based. The settings on record: 0.5% oligosaccharide preparation, anaerobic, 5 days, 37° C.
For test [2], the system named is Bifidobacterium boum 27917. The test is described as above. Format: cell-based. The conditions noted are these: 0.5% oligosaccharide preparation, anaerobic, 5 days, 37° C.
Test [3] deals with Bifidobacterium longum 15707. The description is as above. It is filed as cell-based. The conditions noted are these: 0.5% oligosaccharide preparation, anaerobic, 5 days, 37° C.
The test system of test [4] is Bifidobacterium breve 15698. The description is as above. It is filed as cell-based. The settings on record: 0.5% oligosaccharide preparation, anaerobic, 5 days, 37° C.
The subject of the next test is Lactobacillus casei 393. The test is described as above. It is filed as cell-based. The settings on record: 0.5% oligosaccharide preparation, anaerobic, 5 days, 37° C.
The test system of test [5] is Bifidobacterium bifidum 29521. The description is as above. It is filed as cell-based. The conditions noted are these: 0.5% oligosaccharide preparation, anaerobic, 5 days, 37° C.
Test [6] has as its system Salmonella typhimurium 14028. The description is as above. The conditions noted are these: 0.5% oligosaccharide preparation, anaerobic, 5 days, 37° C. It is filed as cell-based, Salmonella choleraesuis (typhimurium).
Test [7] has as its system Bifidobacterium catenulatum 27539. Described as above. Format: cell-based. The conditions noted are these: 0.5% oligosaccharide preparation, anaerobic, 5 days, 37° C.
For test [8], the system named is Lactobacillus acidophilus 4356. Described as above. Format: cell-based. The conditions noted are these: 0.5% oligosaccharide preparation, anaerobic, 5 days, 37° C.
Test [9] relates to Bifidobacterium adolescentis 15706. The test is described as above. Format: cell-based. The conditions noted are these: 0.5% oligosaccharide preparation, anaerobic, 5 days, 37° C.
In test [10] the test system is Bifidobacterium infantis 15697. The test is described as above. It is filed as cell-based. The settings on record: 0.5% oligosaccharide preparation, anaerobic, 5 days, 37° C.
Test [11] concerns Bifidobacterium adolescentis 15705. The description is as above. Format: cell-based. The conditions noted are these: 0.5% oligosaccharide preparation, anaerobic, 5 days, 37° C.
Test [12] deals with Bifidobacterium adolescentis 15703. The description is as above. Format: cell-based. The settings on record: 0.5% oligosaccharide preparation, anaerobic, 5 days, 37° C.
Test [13] concerns Bifidobacterium thermophilum 25866. Described as above. It is filed as cell-based. The settings on record: 0.5% oligosaccharide preparation, anaerobic, 5 days, 37° C.
For test [14], the system named is Bifidobacterium pseudocatenulatum 27919. The description is as above. It is filed as cell-based. The conditions noted are these: 0.5% oligosaccharide preparation, anaerobic, 5 days, 37° C.
In test [15] the test system is Bacteroides thetaiotaomicron 29148. Format: cell-based. The conditions noted are these: 0.5% oligosaccharide preparation, anaerobic, 5 days, 37° C.
The subject of test [16] is Clostridium perfringens 13124. It is filed as cell-based. The conditions noted are these: 0.5% oligosaccharide preparation, anaerobic, 5 days, 37° C.
Test [17] has as its system Bifidobacterium gallicum 49850. In words: Oligosaccharide utilization (growth) by colonic bacteria. Format: cell-based. The settings on record: 0.5% oligosaccharide preparation, anaerobic, 5 days, 37° C.
The subject of test [18] is Enterobacter aerogenes 35028. The test is described as above. The conditions noted are these: 0.5% oligosaccharide preparation, anaerobic, 5 days, 37° C. It is filed as cell-based.
The next test has as its system alternansucrase. In words: Comparison of acceptor strengths with alternansucrase, relative amount of alternan formed. The conditions noted are these: 45 μL 10% (w/v) sucrose, 45 μL 10% (w/v) acceptor, 10 μL alternansucrase, pH 5.4, room temperature; less alternan = stronger acceptor.
The test system of the next test is Escherchia coli 8739. In words: Oligosaccharide utilization (growth) by colonic bacteria. Format: cell-based, Escherichia coli. The conditions noted are these: 0.5% oligosaccharide preparation, anaerobic, 5 days, 37° C.
In the next test the test system is Lactobacillus GG 53103. The test is described as above. Format: cell-based, Lactobacillus rhamnosus GG. The settings on record: 0.5% oligosaccharide preparation, anaerobic, 5 days, 37° C.
In test [19] the test system is Bifidobacterium ruminantium 4939. Described as above. Format: cell-based. The conditions noted are these: 0.5% oligosaccharide preparation, anaerobic, 5 days, 37° C.

For the molecule `O=C[C@H](O)[C@@H](O)[C@H](O)[C@H](O)CO` [D-glucose], in test [1], the “Growth (OD600 nm), Bifidobacterium adolescentis 15704” value is “+++ (OD600 nm ≧ 0.60, high growth)”. Also, the “Growth (OD600 nm), Bifidobacterium boum 27917” value in test [2] is on record as “+++ (OD600 nm ≧ 0.60, high growth)”. In test [3], the “Growth (OD600 nm), Bifidobacterium longum 15707” value is “+++ (OD600 nm ≧ 0.60, high growth)”. For the same molecule, in test [4], the “Growth (OD600 nm), Bifidobacterium breve 15698” value is given as “+++ (OD600 nm ≧ 0.60, high growth)”. Besides, the “Growth (OD600 nm), Lactobacillus casei 393” value in the test on Lactobacillus casei 393 is recorded as “+++ (OD600 nm ≧ 0.60, high growth)”. The “Growth (OD600 nm), Bifidobacterium bifidum 29521” value in test [5] is recorded as “+++ (OD600 nm ≧ 0.60, high growth)”. Also, the “Growth (OD600 nm), Salmonella typhimurium 14028” value in test [6] is reported as “++ (OD600 nm 0.31–0.59, medium growth)”. Also, in [7], the “Growth (OD600 nm), Bifidobacterium catenulatum 27539” value is “+++ (OD600 nm ≧ 0.60, high growth)”. The “Growth (OD600 nm), Lactobacillus acidophilus 4356” value in test [8] was “+++ (OD600 nm ≧ 0.60, high growth)”. Further, the “Growth (OD600 nm), Bifidobacterium adolescentis 15706” value in test [9] was “+++ (OD600 nm ≧ 0.60, high growth)”. In addition, the “Growth (OD600 nm), Bifidobacterium infantis 15697” value in test [10] was “+++ (OD600 nm ≧ 0.60, high growth)”. Further, the “Growth (OD600 nm), Bifidobacterium adolescentis 15705” value in test [11] is “+++ (OD600 nm ≧ 0.60, high growth)”. Besides, in test [12], the “Growth (OD600 nm), Bifidobacterium adolescentis 15703” value is reported as “+++ (OD600 nm ≧ 0.60, high growth)”. Besides, the “Growth (OD600 nm), Bifidobacterium thermophilum 25866” value in [13] was “+++ (OD600 nm ≧ 0.60, high growth)”. Moreover, the “Growth (OD600 nm), Bifidobacterium pseudocatenulatum 27919” value in [14] is reported as “+++ (OD600 nm ≧ 0.60, high growth)”. For the same molecule, the “Growth (OD600 nm), Bacteroides thetaiotaomicron 29148” value in [15] is listed as “++ (OD600 nm 0.31–0.59, medium growth)”. Further, the “Growth (OD600 nm), Clostridium perfringens 13124” value in [16] is listed as “+++ (OD600 nm ≧ 0.60, high growth)”. Moreover, in [17], the “Growth (OD600 nm), Bifidobacterium gallicum 49850” value is given as “+++ (OD600 nm ≧ 0.60, high growth)”. Further, the “Growth (OD600 nm), Enterobacter aerogenes 35028” value in [18] is reported as “+++ (OD600 nm ≧ 0.60, high growth)”. For the same molecule, the “Alternan (Rel. %)” value in the test with alternansucrase came out at 53 Rel. %. For the same molecule, in the test on Escherchia coli 8739, the “Growth (OD600 nm), Escherchia coli 8739” value is on record as “+++ (OD600 nm ≧ 0.60, high growth)”. For the same molecule, the “Growth (OD600 nm), Lactobacillus GG 53103” value with Lactobacillus GG 53103 is on record as “+++ (OD600 nm ≧ 0.60, high growth)”. Further, the “Growth (OD600 nm), Bifidobacterium ruminantium 4939” value in test [19] is listed as “+++ (OD600 nm ≧ 0.60, high growth)”.

For the origin of these results see patent publication US7182954B1, “Prebiotic oligosaccharides via alternansucrase acceptor reactions” (priority 2003, dated 2007).
